Reference: patent US20190076384A1, “METHODS FOR TREATING UREA CYCLE DISORDERS” (priority 2017, published 2019)
pKi: −log10 of the molar value. Read-outs that look alike come from different tables or passages of the source.

Assays:
Cytochrome P450 3A4 = Cytochrome P450 3A4 (Homo sapiens, UniProt P08684); test: clinical; settings: for overall 1′-OH-midazolam exposure (based on AUC) increased by: free+conjugates
Method: (§1) Methodology: This was a Phase 1, open-label, monosequence crossover, drug-drug interaction study of RAVICTI® and midazolam in healthy male and female subjects.
(§2) Single doses of midazolam HCl syrup (2 mg/mL) were administered in the morning following an approximate 10-hour fast on Days 1 and 5 (coadministered with RAVICTI® on Day 5) just prior to administration of breakfast (˜5 minutes before breakfast).
(§3) Pharmacokinetics: Blood samples for the analysis of plasma midazolam and its metabolite (1′-OH-midazolam, free+conjugates) levels were collected via an indwelling catheter and/or via direct venipuncture. Blood samples were collected on Days 1 and 5 at the following time points: predose, 0.5, 1, 2, 3, 4, 6, 8, 10, 12, 16, and 24 hours postdose. In addition, five plasma PK samples for GPB analysis were collected on Day 4 at the following time points: at 1 minute, 30 minutes, and 1 hour following the first morning dose of RAVICTI; at 30 minutes and 1 hour post second dose of RAVICTI.
(§4) Pharmacokinetics: The possible drug-drug interaction was examined between coadministration of RAVICTI and midazolam (test) and midazolam administered alone (reference). An analysis of variance (ANOVA), with treatment as a fixed effect and subject as a random effect, was performed. Data for Cmax, AUC0-t, and AUC0-∞, as appropriate, were natural log (ln)-transformed prior to analysis. The 90% confidence intervals (CIs) of the test group means relative to the reference group means were obtained by taking the antilog of the corresponding 90% CIs for the differences between the means on the log scale, i.e., ratio of geometric least-squares (LS) means.

Cytochrome P450 2C9 = Cytochrome P450 2C9 (Homo sapiens, UniProt P11712); test: clinical; settings: 200 mg celecoxib with RAVICTI 4 mL three times a day for 6 days, fed conditions
Cytochrome P450 2C9, sequence (P11712 whole entry): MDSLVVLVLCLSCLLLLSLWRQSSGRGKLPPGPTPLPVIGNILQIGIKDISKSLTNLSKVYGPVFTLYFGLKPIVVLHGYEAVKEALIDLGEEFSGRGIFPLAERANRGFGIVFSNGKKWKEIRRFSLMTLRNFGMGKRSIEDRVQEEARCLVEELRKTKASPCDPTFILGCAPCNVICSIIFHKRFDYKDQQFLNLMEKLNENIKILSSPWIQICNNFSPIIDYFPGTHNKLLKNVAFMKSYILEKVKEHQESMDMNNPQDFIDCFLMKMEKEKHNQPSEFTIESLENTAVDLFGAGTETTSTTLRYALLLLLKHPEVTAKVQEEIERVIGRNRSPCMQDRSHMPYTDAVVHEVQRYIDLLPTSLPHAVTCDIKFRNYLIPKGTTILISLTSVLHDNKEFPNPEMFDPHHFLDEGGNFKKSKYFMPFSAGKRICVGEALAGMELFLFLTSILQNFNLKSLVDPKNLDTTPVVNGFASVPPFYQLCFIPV
Method: (§5) Methodology: This was an open-label, 2-period, monosequence crossover, drug-drug interaction (DDI) study of RAVICTI and celecoxib in healthy male and female subjects.
(§6) Test Product, Dose, Duration, and Mode of Administration: In Treatment A (Period 1), subjects received 200 mg celecoxib (1×200 mg capsule) administered orally with approximately 240 mL of water following an overnight fast and approximately 5 minutes prior to the start of a standard breakfast on Day 1.
(§7) Pharmacokinetics: Blood samples (4 mL) for the analysis of plasma celecoxib were collected on Days 1 (Period 1) and 4 (Period 2) at the following time points: predose (Hour 0) and 1, 2, 3, 4, 6, 8, 12, 16, 24, 36, 48, 60, and 72 hours postdose. A blood sample (6 mL) for CYP2C9 genotyping was collected at screening to exclude any subjects with a slow metabolizer genotype (i.e., CYP2C9*2/*2, CYP2C9*2/*3, CYP2C9*1/*3, and CYP2C9*3/*3). PK parameters for celecoxib in plasma were computed following Day 1 (Period 1) and Day 4 (Period 2) blood draws and included AUC0-t, AUC0-inf, AUC%extr, Cmax, tmax, t1/2, kel, and CL/F.
(§8) Pharmacokinetics: The possible DDI was examined between co-administration of RAVICTI and celecoxib (Treatment B, test) and celecoxib administered alone (Treatment A, reference). An analysis of variance (ANOVA) was performed with treatment as a fixed effect and subject as a random effect. Data for AUC0-t, AUC0-inf, and Cmax, as appropriate, were ln-transformed prior to analysis. The 90% confidence intervals (CIs) of the test group means relative to the reference group means were obtained by taking the antilog of the corresponding 90% CIs for the differences between the means on the log scale, i.e., ratio of geometric least-squares (LS) means.

CYP2C9 [1] = molecular target: T1, CYP2C9 (Homo sapiens, UniProt P11712); test: clinical; settings: both, human, plasma, oral, 200 mg
T1 sequence (P11712 whole entry): as above
Method: as §5, §6, §7, §8

CYP3A4 = CYP3A4 (Homo sapiens, UniProt P08684); test: clinical; settings: both, human, in vivo, 3 mg
CYP3A4, sequence (P08684 whole entry): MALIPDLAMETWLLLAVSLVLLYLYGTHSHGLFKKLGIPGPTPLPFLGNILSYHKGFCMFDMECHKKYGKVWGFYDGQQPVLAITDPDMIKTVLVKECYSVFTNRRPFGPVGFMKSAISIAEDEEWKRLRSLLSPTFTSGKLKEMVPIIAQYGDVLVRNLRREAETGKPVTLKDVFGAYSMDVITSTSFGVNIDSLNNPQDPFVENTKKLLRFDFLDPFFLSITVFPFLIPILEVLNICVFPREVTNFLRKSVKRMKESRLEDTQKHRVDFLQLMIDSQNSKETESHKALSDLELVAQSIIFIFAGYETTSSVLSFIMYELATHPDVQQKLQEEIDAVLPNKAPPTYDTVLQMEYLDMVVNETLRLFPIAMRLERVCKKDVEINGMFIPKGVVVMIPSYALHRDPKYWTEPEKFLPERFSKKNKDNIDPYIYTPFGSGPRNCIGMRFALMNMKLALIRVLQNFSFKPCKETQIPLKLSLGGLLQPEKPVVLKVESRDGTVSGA
Method: as §1, §2, §3, §4

CYP3A4/5 [2] = format: in vitro ADME, human
CYP2D6 = CYP2D6 (Homo sapiens, UniProt P10635); settings: for % Inhibition: Bufuralol 1′-hydroxylase, 20.7 mM (2.818 mg/ml)
CYP2D6, sequence (P10635 whole entry): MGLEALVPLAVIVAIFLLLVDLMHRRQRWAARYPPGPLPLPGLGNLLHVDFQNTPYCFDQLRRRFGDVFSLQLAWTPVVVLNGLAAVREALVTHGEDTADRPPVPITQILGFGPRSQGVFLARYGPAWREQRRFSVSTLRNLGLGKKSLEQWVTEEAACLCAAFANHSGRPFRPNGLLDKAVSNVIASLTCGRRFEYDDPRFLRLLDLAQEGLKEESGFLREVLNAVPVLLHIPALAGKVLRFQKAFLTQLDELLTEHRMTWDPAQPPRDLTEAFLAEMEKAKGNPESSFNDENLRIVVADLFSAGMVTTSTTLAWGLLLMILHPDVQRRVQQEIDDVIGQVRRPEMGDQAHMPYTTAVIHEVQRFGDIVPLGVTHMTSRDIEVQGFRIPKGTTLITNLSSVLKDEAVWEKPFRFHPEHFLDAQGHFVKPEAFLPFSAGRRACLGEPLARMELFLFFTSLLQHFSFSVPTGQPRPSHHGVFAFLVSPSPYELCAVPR

CYP3A4/5 [3] = test: Induction of CYP3A4/5 in cultured human hepatocytes; settings: for Relative potency (%): PAA 20.7 mM; for Fold induction: PAA 20.7 mM (concentration of maximum fold induction)
CYP2C8 = molecular target: T2, CYP2C8 (Homo sapiens, UniProt P10632); test: In vitro CYP inhibition study, human liver microsomes, CYP2C8; format: in vitro ADME; settings: for % Inhibition: Taxol 6α-hydroxylase
T2 construct: from tissue; host or cells: human liver microsomes
T2 sequence (P10632 1-490): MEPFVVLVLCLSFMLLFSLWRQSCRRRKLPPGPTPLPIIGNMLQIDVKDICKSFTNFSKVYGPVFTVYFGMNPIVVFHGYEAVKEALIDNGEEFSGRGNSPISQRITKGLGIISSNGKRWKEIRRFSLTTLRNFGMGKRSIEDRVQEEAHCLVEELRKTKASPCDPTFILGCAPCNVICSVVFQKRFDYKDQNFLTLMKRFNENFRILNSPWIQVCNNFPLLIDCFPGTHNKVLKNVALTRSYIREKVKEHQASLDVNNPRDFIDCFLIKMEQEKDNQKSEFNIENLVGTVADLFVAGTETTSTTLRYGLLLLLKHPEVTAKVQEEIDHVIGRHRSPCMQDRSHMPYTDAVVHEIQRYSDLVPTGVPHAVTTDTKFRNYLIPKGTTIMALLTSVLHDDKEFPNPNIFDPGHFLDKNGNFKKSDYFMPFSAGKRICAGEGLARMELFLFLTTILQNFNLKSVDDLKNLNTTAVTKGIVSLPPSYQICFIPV

CYP2C9 [4] = molecular target: T1, CYP2C9; test: In vitro CYP inhibition study, human liver microsomes, CYP2C9
CYP1A2 = molecular target: T3, CYP1A2 (Homo sapiens, UniProt P05177); format: in vitro ADME; settings: for % Inhibition: 7-ethoxyresorufin-O-deethylase
T3 construct: from tissue; host or cells: human liver microsomes
T3 sequence (P05177 1-516): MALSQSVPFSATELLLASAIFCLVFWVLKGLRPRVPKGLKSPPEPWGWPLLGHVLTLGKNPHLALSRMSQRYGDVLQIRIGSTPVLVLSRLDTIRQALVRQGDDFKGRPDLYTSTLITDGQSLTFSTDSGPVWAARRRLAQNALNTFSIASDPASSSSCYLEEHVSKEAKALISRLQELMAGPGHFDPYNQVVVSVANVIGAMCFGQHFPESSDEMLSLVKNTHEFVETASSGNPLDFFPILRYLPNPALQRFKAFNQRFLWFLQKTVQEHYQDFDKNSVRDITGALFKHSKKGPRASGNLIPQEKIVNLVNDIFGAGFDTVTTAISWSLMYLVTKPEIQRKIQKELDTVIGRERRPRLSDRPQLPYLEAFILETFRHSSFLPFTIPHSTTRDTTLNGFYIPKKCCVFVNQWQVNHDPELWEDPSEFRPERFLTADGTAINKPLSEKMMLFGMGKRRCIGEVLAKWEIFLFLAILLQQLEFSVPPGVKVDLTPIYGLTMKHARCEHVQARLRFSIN

CYP2C19 = molecular target: T4, CYP2C19 (Homo sapiens, UniProt P33261); format: in vitro ADME; settings: for % Inhibition: S-Mephenytoin 4′-hydroxylase
T4 construct: from tissue; host or cells: human liver microsomes
T4 sequence (P33261 whole entry): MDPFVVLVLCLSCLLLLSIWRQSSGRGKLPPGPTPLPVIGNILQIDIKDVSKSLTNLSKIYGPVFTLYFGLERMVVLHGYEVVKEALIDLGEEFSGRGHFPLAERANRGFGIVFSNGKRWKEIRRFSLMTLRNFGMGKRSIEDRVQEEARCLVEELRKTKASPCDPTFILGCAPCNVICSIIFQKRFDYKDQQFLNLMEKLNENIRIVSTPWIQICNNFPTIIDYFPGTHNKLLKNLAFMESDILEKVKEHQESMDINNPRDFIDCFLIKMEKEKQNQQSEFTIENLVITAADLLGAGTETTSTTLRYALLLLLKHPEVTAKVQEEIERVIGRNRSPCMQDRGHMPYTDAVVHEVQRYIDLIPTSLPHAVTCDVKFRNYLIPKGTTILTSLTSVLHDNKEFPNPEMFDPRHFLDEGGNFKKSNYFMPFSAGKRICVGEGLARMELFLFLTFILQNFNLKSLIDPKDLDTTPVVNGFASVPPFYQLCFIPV

CYP2C9 [5] = molecular target: T1, CYP2C9; settings: for % Inhibition: Diclofenac 4′-hydroxylase, 20.7 mM (2.818 mg/ml)
[6] = Mean peak concentration of PBA and PAA in different patient populations
CYP3A4/5 [7] = tested on: CYP3A4/5
[8] = after RAVICTI 4 mL three times a day for 3 days, fed conditions, healthy subjects
[9] = upon coadministration with multiple-dose RAVICTI
[10] = at a concentration higher than the observed plasma concentrations
[11] = 20.7 mM (2.818 mg/ml), pre-incubation time 0 min
[12] = 20.7 mM (2.818 mg/ml), pre-incubation time 30 min
[13] = 5 mM, pre-incubation time 0 min
[14] = 5 mM, pre-incubation time 30 min

Cytochrome P450 3A4, sequence (P08684 whole entry): as the sequence (P08684 whole entry) above

Compound: OCc1ncc2n1-c1ccc(Cl)cc1C(c1ccccc1F)=NC2 [1′-OH-midazolam]
- mean AUC for 1-hydroxy midazolam higher than midazolam alone (Cytochrome P450 3A4; [8]): 58%
- mean Cmax for 1-hydroxy midazolam higher than midazolam alone (Cytochrome P450 3A4; [8]): 28%
- 1′-OH-midazolam Cmax (peak exposure) increased by (Cytochrome P450 3A4; [9]): 28%
- overall 1′-OH-midazolam exposure (based on AUC) increased by (Cytochrome P450 3A4; [9]): approximately 60%
- overall 1′-OH-midazolam exposure (based on AUC) increased by (Cytochrome P450 3A4; upon coadministration with multiple-dose RAVICTI, listed as 1′-hydroxy-midazolam): 60%

Compound: Cc1ccc(-c2cc(C(F)(F)F)nn2-c2ccc(S(N)(=O)=O)cc2)cc1 [Celecoxib, celecoxib]
- mean AUC for celecoxib lower than celecoxib alone (Cytochrome P450 2C9): 8%
- mean Cmax for celecoxib lower than celecoxib alone (Cytochrome P450 2C9): 13%
- AUC(0-inf) (CYP2C9 [1]): 5440 ng·h/mL
- AUC(0-t) (CYP2C9 [1]): 5170 ng·h/mL
- Cmax (CYP2C9 [1]): 620 ng/mL

Compound: Cc1ncc2n1-c1ccc(Cl)cc1C(c1ccccc1F)=NC2 [Midazolam, midazolam]
- AUC(0-inf) (CYP3A4): 67 ng·h/mL
- AUC(0-t) (CYP3A4): 64.7 ng·h/mL
- Cmax (CYP3A4): 16.8 ng/mL
- mean AUC for midazolam lower than midazolam alone (Cytochrome P450 3A4; [8]): 32%
- mean Cmax for midazolam lower than midazolam alone (Cytochrome P450 3A4; [8]): 25%
- midazolam overall exposure reduced by (Cytochrome P450 3A4; [9]): ~32%
- midazolam peak exposure reduced by (Cytochrome P450 3A4; [9]): approximately 26%
- midazolam peak exposure reduced by (Cytochrome P450 3A4; upon coadministration with multiple-dose RAVICTI, listed as midazolam): 26%

Compound: phenylacetate [PAA]
- % Inhibition (CYP3A4/5 [2]; Midazolam 1′-hydroxylase, 20.7 mM (2.818 mg/ml), pre-incubation time 0 min): 63%
- % Inhibition (CYP3A4/5 [2]; Midazolam 1′-hydroxylase, 20.7 mM (2.818 mg/ml), pre-incubation time 30 min): 65%
- % Inhibition (CYP3A4/5 [2]; Testosterone 6β-hydroxylase, 20.7 mM (2.818 mg/ml), pre-incubation time 0 min): 60%
- % Inhibition (CYP3A4/5 [2]; Testosterone 6β-hydroxylase, 20.7 mM (2.818 mg/ml), pre-incubation time 30 min): 63%
- inhibition of CYP3A4/5 (in words) (CYP3A4/5 [2]; at 20.7 mM): inhibited
- effect on CYP3A4 (in words) (CYP3A4/5 [2]; [10]): inhibitory effect
- % Inhibition (CYP2D6; pre-incubation time 0 min): 49%
- % Inhibition (CYP2D6; pre-incubation time 30 min): 57%
- inhibition of CYP2D6 (in words) (CYP2D6; at 20.7 mM): inhibited
- induction of CYP3A4/5 (CYP3A4/5 [3]; cultured human hepatocytes, PAA): < 1.8 fold
- Relative potency (%) (CYP3A4/5 [3]; donor Hu0793): 13.1%
- Fold induction (CYP3A4/5 [3]; donor Hu0793): 1.4 fold
- Relative potency (%) (CYP3A4/5 [3]; donor Hu4156): 18.2%
- Fold induction (CYP3A4/5 [3]; donor Hu4156): 1.7 fold
- % Inhibition (CYP2C8; [11]): 50%
- % Inhibition (CYP2C8; [12]): 49%
- inhibition of CYP2C8 (in words) (CYP2C8; at 20.7 mM): inhibited
- pKi (CYP2C9 [4]): 1.82
- % Inhibition (CYP1A2; [11]): 58%
- % Inhibition (CYP1A2; [12]): 47%
- inhibition of CYP1A2 (in words) (CYP1A2; at 20.7 mM): inhibited
- % Inhibition (CYP2C19; [11]): 37%
- % Inhibition (CYP2C19; [12]): 37%
- inhibition of CYP2C19 (in words) (CYP2C19; at 20.7 mM): inhibited
- % Inhibition (CYP2C9 [5]; pre-incubation time 0 min): 47%
- % Inhibition (CYP2C9 [5]; pre-incubation time 30 min): 44%
- inhibition of CYP2C9 (in words) (CYP2C9 [5]; at 20.7 mM): inhibited
- effect on CYP2C9 (in words) (CYP2C9 [5]; [10]): inhibitory effect
- [I]/Ki ratio, CYP2C9 (CYP2C9 [5]; based on mean peak PAA concentration in UCD patients): < 0.1

Compound: phenylbutyrate [PBA]
- % Inhibition (CYP3A4/5 [2]; Testosterone 6β-hydroxylase, 5 mM, pre-incubation time 0 min): 80%
- % Inhibition (CYP3A4/5 [2]; Testosterone 6β-hydroxylase, 5 mM, pre-incubation time 30 min): 85%
- PBA Mean peak concentration ([6]; Cirrhotic - HE 9 ml BID): 0.1412 mg/mL
- PBA Mean peak concentration ([6]; Healthy volunteer): 0.037 mg/mL
- PBA Mean peak concentration ([6]; UCD adult): 0.0701 mg/mL
- PBA Mean peak concentration ([6]; UCD pediatric): 0.0956 mg/mL
- inhibition of CYP2C8 (in words) (CYP2C8; 5 mM (0.821 mg/ml)): did not inhibit
- % Inhibition (CYP2C8; [13]): 24%
- % Inhibition (CYP2C8; [14]): 27%
- inhibition of CYP1A2 (in words) (CYP1A2; 5 mM (0.821 mg/ml)): did not inhibit
- % Inhibition (CYP1A2; [13]): 6%
- % Inhibition (CYP1A2; [14]): 2%
- inhibition of CYP2C19 (in words) (CYP2C19; 5 mM (0.821 mg/ml)): did not inhibit
- % Inhibition (CYP2C19; [13]): 26%
- % Inhibition (CYP2C19; [14]): 19%
- extent of induction lower compared to the positive control (rifampicin) (CYP3A4/5 [7]): about 50%
